Laboratory results: US20240124456A1, “AZA-ERGOLINE DERIVATIVE AND PREPARATION METHOD THEREFOR AND APPLICATION THEREOF” (SHANGHAITECH UNIVERSITY, priority 2021, published 2024)

Columns and labels:
dopamine D2 receptors [1] = target: T1, dopamine D2 receptors (Homo sapiens (Human), UniProt P14416); test: β-arrestin2 recruitment BRET, dopamine D2 receptor functional activity; format: cell-based; details: for Emax: relative to the endogenous ligand dopamine, read-out: β-arrestin2 BRET Emax % ± SEM
Protocol: To examine the downstream f3-arrestin2 signaling pathway mediated by dopamine D2 receptors, 6 cm dish was used for transfection with 500 […] of dopamine D2 receptors fused to seaweed luciferase (D2-Rluc), 500 μg of G protein-coupled receptor kinase 2 (GRK2), 2500 μg of β-arrestin2 fused to green fluorescent protein (GFP2-ARRB2) and 14 μL of transfection reagent PEI. The next day, the overgrown cells were digested and plated a 96-well plate at the amount of cells contained in a 6 cm culture dish with overgrown cells, and 100 μL of culture medium was added to each well. On the third day, the drugs were added for test.
(§1) To examine downstream G-protein signaling pathway mediated by dopamine D2 receptors, on the first day, 6 cm dish was used for transfection with 1μg of dopamine D2 receptors, 1μg of Gαi1 containing C-terminal seaweed luciferase (GGαi1-Rluc), 1 μg of […], 1 μg of Gγ9 containing C-terminal green fluorescent protein (Gγ9-GFP) and 16 μL of PEI. At the same time, in order to examine the downstream f3-arrestin2 signaling pathway mediated by dopamine D2 receptors, on the first day, 6 cm dish was used for transfection with 500 μg of dopamine D2 receptors containing C-terminal seaweed luciferase (D2-Rluc), 500 μg of G protein-coupled receptor kinase 2 (GRK2), 2500 μg of […] containing N-terminal green fluorescent protein (GFP2-ARRB2) and 14 μL of PEI. The next day, the overgrown cells were digested and plated a 96-well plate at the amount of cells contained in a 6 cm culture dish with overgrown cells, and 100 μL of culture medium was added to each well. On the third day, the drugs were added for test. The 96-well plate was taken out from the cell culture room to remove the culture medium, 40 μL of the substrate coelenterazine 400a (final concentration of 5 μM) was added to each well, and then 20 μL of different drugs were added in turn from left to right to ensure that the final concentration of the drugs decreased gradually from bottom to top, and each treatment was repeated twice. Finally, the prepared samples were loaded on machine for test. The machine reading value reflected the intracellular β-arrestin2 on the membrane and the dissociation of G protein trimer. The former indicated the degree of activation of the β-arrestin2 signaling pathway downstream of the dopamine D2 receptors, and the latter indicated the degree of activation of the G protein signaling pathway downstream of the dopamine D2 receptors.

dopamine D2 receptors [2] = target: T1, dopamine D2 receptors; test: G protein Gαi1-γ9 dissociation BRET, dopamine D2 receptor functional activity; format: cell-based; details: for Emax: relative to the endogenous ligand dopamine, read-out: Gai1 BRET Emax % ± SEM
Protocol: To examine downstream G protein signaling mediated by dopamine D2 receptors, 6 cm dish was used for transfection with 1μg of dopamine D2 receptors, 1μg of Gαi1 fused to seaweed luciferase (Gαi1-Rluc), 1 μg of Gβ3, 1 μg of Gγ9 fused to green fluorescent protein (Gγ9-GFP) and 16 μL of transfection reagent PEI. […] On the third day, the drugs were added for test.
as §1

dopamine D2 receptors [3] = target: T1, dopamine D2 receptors; test: Radioligand competition binding, affinity for dopamine D2 receptors ([3H]-Methylspiperone); details: [3H]-Methylspiperone (0.3-0.5 nM), HEK-293T membranes; for Ki: I-1 to 19 n=3, I-20 to 27 single determination; for Affinity pKi ± SEM: n=3
Protocol: A 10 cm diameter dish was used for transfection with 10 ng of the dopamine D2 receptors and 40 μL of PEI. After 48 hours, the 10 cm dish was taken out from the cell culture room and the cultured cells had expressed the dopamine D2 receptors. A vacuum pump was used to suck off the culture medium, 3 mL of lysis buffer (50 mM Tris hydrochloric acid buffer, pH 7.4) was added to each well, and the cells were placed in a 4° C. freezer for 10 minutes. After the cells were detached, the cells were transferred to a 15 mL centrifuge tube and centrifuged at 1500 rpm for 5 minutes at 4° C., and the supernatant was discarded. The cell pellet was transferred to a tissue homogenizer, and 3 mL of lysis buffer was added and fully ground until the cells were broken. Then, cell suspension was equally divided into several EP tubes, centrifuged at 4° C. and 12000 rpm for 5 min, and the supernatant was discarded. The precipitate was the cell membrane component containing the dopamine D2 receptors and stored at −80° C.
First, a standard binding buffer (50 mM HEPES, 50 mM NaCl, 5 mM MgCl2, 0.5 mM EDTA, pH 7.4) was added to the cell membrane component containing the dopamine D2 receptors, and the cell membrane was disrupted and resuspended with an electric tissue homogenizer. 30 μL of membrane protein suspension was added to each well of a 96-well plate. Then, 30 μL of different drugs were added to the 96-well plate from left to right to ensure that the final drug concentrations were 10^−5 M, 10^−6 M, 10^−7 M, 10^−8 M, 10^−9 M and 0 M, with two replicates per treatment. Next, 30 μL [^3H]-N-Methylspiperone was added to each well of the 96-well plate, and the plate was incubated for 2 hours at room temperature in the dark. The unbound isotopes were removed by Whatman GF/C filter membrane and vacuum pump, and the isotopes bound to the receptors were detected by MicroBeta isotope liquid scintillation counter.
The affinity of the compounds of the present invention for the dopamine D2 receptors was determined by the method of radioligand competition experiment. In the first step, a cell membrane component containing specific dopamine D2 receptors was prepared. A10 cm dish was used for transfection with 10 ng of the dopamine D2 receptors and 40 μL of PEI. After 48 hours, the 10 cm dish was taken out from the cell culture room and the cultured cells had expressed the dopamine D2 receptors. A vacuum pump was used to suck off the culture medium, 3 mL of lysis buffer was added to each well, and the cells were placed in a 4° C. freezer for 10 minutes. After the cells were detached, the cells were transferred to a 15 mL centrifuge tube and centrifuged at 1500 rpm for 5 minutes at 4° C., and the supernatant was discarded. The cell pellet was transferred to a tissue homogenizer, and 3 mL of lysis buffer was added and fully ground until the cells were broken. Then, cell suspension was equally divided into several EP tubes, centrifuged at 4° C. and 12000 rpm for 5 min, and the supernatant was discarded. The precipitate was the cell membrane component containing the dopamine D2 receptors. […] First, a standard binding buffer was added to the cell membrane component containing the dopamine D2 receptors, and the cell membrane was disrupted and resuspended with an electric tissue homogenizer. 30 μL of membrane protein suspension was added to each well of a 96-well plate. Then, 30 μL of different drugs were added to the 96-well plate from left to right to ensure that the final drug concentrations were 10^−5 M, 10^−6 M, 10^−7 M, 10^−8 M, 10^−9 M and 0 M, with two replicates per treatment. Next, 30 μL [^3H]-Methylspiperone was added to each well of the 96-well plate. The plate was incubated for 2 hours at room temperature in the dark. Detection. The machine reading value reflected the amount of [^3H]-Methylspiperone bound on the membrane, and after further data processing, the affinity Ki value of different compounds for dopamine D2 receptors was obtained.

[4] = HEK-293T, I-1 to 19 n=3, I-20 to 27 single determination, read-out: β-arrestin2 BRET EC50
[5] = HEK-293T, I-1 to 19 n=3, I-20 to 27 single determination, read-out: Gai1 BRET EC50
[6] = n=3, read-out: β-arrestin2 BRET pEC50 ± SEM (converted)
[7] = n=3, read-out: Gai1 BRET pEC50 ± SEM (converted)

T1 sequence (P14416 whole entry, the tested form may be a part): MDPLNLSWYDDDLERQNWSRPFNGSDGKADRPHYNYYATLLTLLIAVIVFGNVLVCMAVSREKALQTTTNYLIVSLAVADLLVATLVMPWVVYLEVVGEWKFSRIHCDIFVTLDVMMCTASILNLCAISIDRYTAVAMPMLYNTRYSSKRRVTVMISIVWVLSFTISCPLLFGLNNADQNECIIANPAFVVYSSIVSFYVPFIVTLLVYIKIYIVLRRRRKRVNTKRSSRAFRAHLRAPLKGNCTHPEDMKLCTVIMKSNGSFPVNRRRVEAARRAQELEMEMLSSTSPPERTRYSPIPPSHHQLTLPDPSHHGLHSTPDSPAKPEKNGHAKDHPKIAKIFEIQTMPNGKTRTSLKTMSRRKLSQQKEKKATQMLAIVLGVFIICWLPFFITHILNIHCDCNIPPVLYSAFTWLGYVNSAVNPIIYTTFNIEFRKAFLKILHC

SMILES | EC50 (dopamine D2 receptors [1]; [4]) | Emax (dopamine D2 receptors [1]) | EC50 (dopamine D2 receptors [2]; [5]) | Emax (dopamine D2 receptors [2]) | Ki (dopamine D2 receptors [3]) | Affinity pKi ± SEM (dopamine D2 receptors [3]) | EC50 (dopamine D2 receptors [1]; [6]) | EC50 (dopamine D2 receptors [2]; [7])
O=C(N[C@H]1CC[C@H](CCN2CCN3c4cccc5[nH]cc(c45)CC3C2)CC1)N1CCCCC1 (stereo partly drawn) [Compound I-12, N-(4-(2-(4,6,6a,7,9,10-hexahydro-8H-pyrazino[1,2-a]pyrrolo[4,3,2-de]quinolin-8-yl)ethyl)trans-cyclohexyl)piperidine-1-carboxamide] | 20.4 nM | 89% | 17.4 nM | 92% | 27.1 nM | (7.57 ± 0.03) | – | –
O=S(=O)(N[C@H]1CC[C@H](CCN2CCN3c4cccc5[nH]cc(c45)CC3C2)CC1)c1ccccc1 (stereo partly shown) [Compound I-15, N-(4-(2-(4,6,6a,7,9,10-hexahydro-8H-pyrazino[1,2-a]pyrrolo[4,3,2-de]quinolin-8-yl)ethyl)cyclohexyl)phenylsulfonamide] | 31.5 nM | 80% | 2.65 nM | 94% | 77.5 nM | (7.11 ± 0.12) | – | –
CN(C)C(=O)N[C@H]1CC[C@H](CCN2CCN3c4cccc5c4c(cn5C)CC3C2)CC1 (stereo partly drawn) [Compound I-19, 1,1-dimethyl-3-(4-(2-(4-methyl-4,6,6a,7,9,10-hexahydro-8H-pyrazino[1,2-a]pyrrolo[4,3,2-de]quinolin-8-yl)ethyl)trans-cyclohexyl)urea] | – | 34% | 4 nM | 71% | 52.7 nM | (7.28 ± 0.15) | 28.8 nM | 4.17 nM
Cc1nc2cc(OCCCCN3CCN4c5cccc6[nH]cc(c56)CC4C3)ccc2o1 (stereo not shown) [Compound I-4, 5-(4-(4,6,6a,7,9,10-hexahydro-8H-pyrazino[1,2-a]pyrrolo[4,3,2-de]quinolin-8-yl)butoxy)-2-methylbenzo[d]oxazole] | 71 nM | 66% | 6.68 nM | 80% | 30.3 nM | (7.52 ± 0.08) | – | –
Cn1cc2c3c(cccc31)N1CCN(C/C=C/COc3ccc4ccc(=O)[nH]c4c3)CC1C2 (stereo not shown) [Compound I-23, (E)-7-((4-(4-methyl-4,6,6a,7,9,10-hexahydro-8H-pyrazino[1,2-a]pyrrolo[4,3,2-de]quinolin-8-yl)-2-buten-1-yl)oxy)quinolin-2(1H)-one] | 294 nM | 36% | 54.8 nM | 38% | 100 nM | – | – | –
Cn1cc2c3c(cccc31)N1CCN(CCCCOc3ccc4ccc(=O)[nH]c4c3)CC1C2 (stereo not shown) [Compound I-18, 7-(4-(4-methyl-4,6,6a,7,9,10-hexahydro-8H-pyrazino[1,2-a]pyrrolo[4,3,2-de]quinolin-8-yl)butoxy)quinolin-2(1H)-one] | 110 nM | 50% | 11 nM | 77% | 61 nM | (7.22 ± 0.02) | – | –
Cc1noc2cc(OCCCCN3CCN4c5cccc6[nH]cc(c56)CC4C3)ccc12 (stereo not shown) [Compound I-5, 6-(4-(4,6,6a,7,9,10-hexahydro-8H-pyrazino[1,2-a]pyrrolo[4,3,2-de]quinolin-8-yl)butoxy)-3-methylbenzo[d] is oxazole] | 54 nM | 61% | 7.44 nM | 83% | 37.1 nM | (7.43 ± 0.09) | – | –
O=C1CCc2ccc(OCCCN3CCN4c5cccc6[nH]cc(c56)CC4C3)cc2N1 (stereo not shown) [Compound I-7, 7-(3-(4,6,6a,7,9,10-hexahydro-8H-pyrazino[1,2-a]pyrrolo[4,3,2-de]quinolin-8-yl)propoxy)-3,4-dihydroquinolin-2(1H)-one] | 275 nM | 97% | 138 nM | 104% | 403 nM | (6.40 ± 0.12) | – | –
c1cc2c3c(c[nH]c3c1)CC1CN(CCCCOc3ccc4c(c3)OCC4)CCN21 (stereo not shown) [Compound I-6, 8-(4-((2,3-dihydrobenzofuran-6-yl)oxy)butyl)-6,6a,7,8,9,10-hexahydro-4H-pyrazino[1,2-a]pyrrolo[4,3,2-de]quinoline] | 61.6 nM | 61% | 6.64 nM | 86% | 51.6 nM | (7.29 ± 0.10) | – | –
Cc1nc2n(c(=O)c1CCN1CCN3c4cccc5[nH]cc(c45)CC3C1)CCCC2 (stereo not shown) [Compound I-17, 3-(2-(4,6,6a,7,9,10-hexahydro-8H-pyrazino[1,2-a]pyrrolo[4,3,2-de]quinolin-8-yl)ethyl)-2-methyl-6,7,8,9-tetrahydro-4H-pyrido[1,2-a]pyrimidin-4-one] | 202 nM | 38% | 32.7 nM | 61% | 55.8 nM | (7.25 ± 0.12) | 200 nM | –
O=c1ccc2ccc(OCCCCN3CCN4c5cccc6[nH]cc(c56)CC4C3)cc2[nH]1 (single isomer, unassigned; (+)) [(+)-I-2] | – | 89% | 1 nM | 95% | 8.87 nM | – | 15.8 nM | 0.851 nM
